Reference: ChEMBL document CHEMBL1140040, “Synthesis and cytotoxic activity of some novel polycyclic gamma-butyrolactones” (Bioorg Med Chem Lett, 2008)

What was measured:
[1] = system: HOP-62; assay: Antiproliferative activity against human HOP62 cells after 48 hrs by sulforhodamine B assay; assay type: functional, cell-based; conditions: HOP-62, 48 h
[2] = system: HCT-15; assay: Cytotoxicity against human HCT15 cells assessed as age growth inhibition at 50 uM after 48 hrs by sulforhodamine B assay; assay type: functional; conditions: HCT-15, 48 h, read-out: GI
[3] = system: HCT-15; assay: Cytotoxicity against human HCT15 cells assessed as age growth inhibition at 100 uM after 48 hrs by sulforhodamine B assay; assay type: functional; conditions: HCT-15, 48 h, read-out: GI
[4] = system: HOP-62; assay: Cytotoxicity against human HOP62 cells assessed as age growth inhibition at 50 uM after 48 hrs by sulforhodamine B assay; assay type: functional; conditions: HOP-62, 48 h, read-out: GI
[5] = system: DU-145; assay: Cytotoxicity against human DU145 cells assessed as age growth inhibition at 100 uM after 48 hrs by sulforhodamine B assay; assay type: functional; conditions: DU-145, 48 h, read-out: GI
[6] = system: COLO 205; assay: Cytotoxicity against human COLO205 cells assessed as age growth inhibition at 100 uM after 48 hrs by sulforhodamine B assay; assay type: functional; conditions: COLO 205, 48 h, read-out: GI
[7] = system: HEp-2; assay: Cytotoxicity against human HEP2 cells assessed as age growth inhibition at 10 uM after 48 hrs by sulforhodamine B assay; assay type: functional; conditions: HEp-2, 48 h, read-out: GI
[8] = system: COLO 205; assay: Antiproliferative activity against human COLO205 cells after 48 hrs by sulforhodamine B assay; assay type: functional, cell-based; conditions: COLO 205, 48 h
[9] = system: HOP-62; assay: Cytotoxicity against human HOP62 cells assessed as age growth inhibition at 100 uM after 48 hrs by sulforhodamine B assay; assay type: functional; conditions: HOP-62, 48 h, read-out: GI
[10] = system: HEp-2; assay: Cytotoxicity against human HEP2 cells assessed as age growth inhibition at 100 uM after 48 hrs by sulforhodamine B assay; assay type: functional; conditions: HEp-2, 48 h, read-out: GI
[11] = system: SK-OV-3; assay: Cytotoxicity against human SKOV3 cells assessed as age growth inhibition at 10 uM after 48 hrs by sulforhodamine B assay; assay type: functional; conditions: SK-OV-3, 48 h, read-out: GI
[12] = system: HCT-15; assay: Cytotoxicity against human HCT15 cells assessed as age growth inhibition at 10 uM after 48 hrs by sulforhodamine B assay; assay type: functional; conditions: HCT-15, 48 h, read-out: GI
[13] = system: COLO 205; assay: Cytotoxicity against human COLO205 cells assessed as age growth inhibition at 50 uM after 48 hrs by sulforhodamine B assay; assay type: functional; conditions: COLO 205, 48 h, read-out: GI
[14] = system: SF-295; assay: Antiproliferative activity against human SF295 cells after 48 hrs by sulforhodamine B assay; assay type: functional, cell-based; conditions: SF-295, 48 h
[15] = system: IGROV-1; assay: Cytotoxicity against human IGROV1 cells assessed as age growth inhibition at 100 uM after 48 hrs by sulforhodamine B assay; assay type: functional; conditions: IGROV-1, 48 h, read-out: GI
[16] = system: IGROV-1; assay: Cytotoxicity against human IGROV1 cells assessed as age growth inhibition at 50 uM after 48 hrs by sulforhodamine B assay; assay type: functional; conditions: IGROV-1, 48 h, read-out: GI
[17] = system: SK-OV-3; assay: Cytotoxicity against human SKOV3 cells assessed as age growth inhibition at 100 uM after 48 hrs by sulforhodamine B assay; assay type: functional; conditions: SK-OV-3, 48 h, read-out: GI
[18] = system: SF-295; assay: Cytotoxicity against human SF295 cells assessed as age growth inhibition at 10 uM after 48 hrs by sulforhodamine B assay; assay type: functional; conditions: SF-295, 48 h, read-out: GI
[19] = system: HOP-62; assay: Cytotoxicity against human HOP62 cells assessed as age growth inhibition at 10 uM after 48 hrs by sulforhodamine B assay; assay type: functional; conditions: HOP-62, 48 h, read-out: GI
[20] = system: COLO 205; assay: Cytotoxicity against human COLO205 cells assessed as age growth inhibition at 10 uM after 48 hrs by sulforhodamine B assay; assay type: functional; conditions: COLO 205, 48 h, read-out: GI
[21] = system: DU-145; assay: Antiproliferative activity against human DU145 cells after 48 hrs by sulforhodamine B assay; assay type: functional, cell-based; conditions: DU-145, 48 h
[22] = system: DU-145; assay: Cytotoxicity against human DU145 cells assessed as age growth inhibition at 50 uM after 48 hrs by sulforhodamine B assay; assay type: functional; conditions: DU-145, 48 h, read-out: GI
[23] = system: HCT-15; assay: Antiproliferative activity against human HCT15 cells after 48 hrs by sulforhodamine B assay; assay type: functional, cell-based; conditions: HCT-15, 48 h
[24] = system: IGROV-1; assay: Antiproliferative activity against human IGROV1 cells after 48 hrs by sulforhodamine B assay; assay type: functional, cell-based; conditions: IGROV-1, 48 h
[25] = system: SK-OV-3; assay: Antiproliferative activity against human SKOV3 cells after 48 hrs by sulforhodamine B assay; assay type: functional, cell-based; conditions: SK-OV-3, 48 h
[26] = system: HEp-2; assay: Cytotoxicity against human HEP2 cells assessed as age growth inhibition at 50 uM after 48 hrs by sulforhodamine B assay; assay type: functional; conditions: HEp-2, 48 h, read-out: GI
[27] = system: IGROV-1; assay: Cytotoxicity against human IGROV1 cells assessed as age growth inhibition at 10 uM after 48 hrs by sulforhodamine B assay; assay type: functional; conditions: IGROV-1, 48 h, read-out: GI
[28] = system: HEp-2; assay: Antiproliferative activity against human HEP2 cells after 48 hrs by sulforhodamine B assay; assay type: functional, cell-based; conditions: HEp-2, 48 h
[29] = system: A549; assay: Antiproliferative activity against human A549 cells after 48 hrs by sulforhodamine B assay; assay type: functional, cell-based; conditions: A549, 48 h
[30] = system: A549; assay: Cytotoxicity against human A549 cells assessed as age growth inhibition at 50 uM after 48 hrs by sulforhodamine B assay; assay type: functional; conditions: A549, 48 h, read-out: GI
[31] = system: SF-295; assay: Cytotoxicity against human SF295 cells assessed as age growth inhibition at 50 uM after 48 hrs by sulforhodamine B assay; assay type: functional; conditions: SF-295, 48 h, read-out: GI
[32] = system: SK-OV-3; assay: Cytotoxicity against human SKOV3 cells assessed as age growth inhibition at 50 uM after 48 hrs by sulforhodamine B assay; assay type: functional; conditions: SK-OV-3, 48 h, read-out: GI
[33] = system: A549; assay: Cytotoxicity against human A549 cells assessed as age growth inhibition at 10 uM after 48 hrs by sulforhodamine B assay; assay type: functional; conditions: A549, 48 h, read-out: GI
[34] = system: SF-295; assay: Cytotoxicity against human SF295 cells assessed as age growth inhibition at 100 uM after 48 hrs by sulforhodamine B assay; assay type: functional; conditions: SF-295, 48 h, read-out: GI
[35] = system: A549; assay: Cytotoxicity against human A549 cells assessed as age growth inhibition at 100 uM after 48 hrs by sulforhodamine B assay; assay type: functional; conditions: A549, 48 h, read-out: GI
[36] = system: DU-145; assay: Cytotoxicity against human DU145 cells assessed as age growth inhibition at 10 uM after 48 hrs by sulforhodamine B assay; assay type: functional; conditions: DU-145, 48 h, read-out: GI

Compound | IC50 [1] [µM] | inhibition of growth at 50 µM [2] [%] | inhibition of growth at 100 µM [3] [%] | inhibition of growth at 50 µM [4] [%] | inhibition of growth at 100 µM [5] [%] | inhibition of growth at 100 µM [6] [%] | inhibition of growth at 10 µM [7] [%] | IC50 [8] [µM] | inhibition of growth at 100 µM [9] [%] | inhibition of growth at 100 µM [10] [%] | inhibition of growth at 10 µM [11] [%] | inhibition of growth at 10 µM [12] [%] | inhibition of growth at 50 µM [13] [%] | IC50 [14] [µM] | inhibition of growth at 100 µM [15] [%] | inhibition of growth at 50 µM [16] [%] | inhibition of growth at 100 µM [17] [%] | inhibition of growth at 10 µM [18] [%] | inhibition of growth at 10 µM [19] [%] | inhibition of growth at 10 µM [20] [%] | also measured
CC1(C)CCC[C@@]2(C)C1=C[C@H]1C(=O)O[C@H](c3ccc(Cl)cc3)[C@H]12 | > 100 | 29 | 30 | 29 | 35 | 25 | 8 | > 100 | 38 | 18 | 10 | 9 | 24 | > 100 | 16 | 15 | 24 | 20 | 27 | 22 | IC50 [21]: > 100 µM; inhibition of growth at 50 µM [22]: 30%; IC50 [23]: > 100 µM; IC50 [24]: > 100 µM; IC50 [25]: > 100 µM; inhibition of growth at 50 µM [26]: 18%; inhibition of growth at 10 µM [27]: 1%; IC50 [28]: > 100 µM; IC50 [29]: > 100 µM; inhibition of growth at 50 µM [30]: 12%; inhibition of growth at 50 µM [31]: 23%; inhibition of growth at 50 µM [32]: 14%; inhibition of growth at 10 µM [33]: 10%; inhibition of growth at 100 µM [34]: 31%; inhibition of growth at 100 µM [35]: 20%; inhibition of growth at 10 µM [36]: 16%
CC1(C)CCC[C@@]2(C)C1=C[C@H]1C(=O)O[C@H](c3ccc(Br)cc3)[C@H]12 | 49.5 | 32 | 40 | 55 | 28 | 32 | 3 | > 100 | 66 | 22 | 6 | 7 | 14 | > 100 | 30 | 26 | 52 | 0 | 0 | 14 | IC50 [21]: > 100 µM; inhibition of growth at 50 µM [22]: 27%; IC50 [23]: > 100 µM; IC50 [24]: > 100 µM; IC50 [25]: 95.1 µM; inhibition of growth at 50 µM [26]: 18%; inhibition of growth at 10 µM [27]: 7%; IC50 [28]: > 100 µM; IC50 [29]: > 100 µM; inhibition of growth at 50 µM [30]: 10%; inhibition of growth at 50 µM [31]: 18%; inhibition of growth at 50 µM [32]: 28%; inhibition of growth at 10 µM [33]: 8%; inhibition of growth at 100 µM [34]: 21%; inhibition of growth at 100 µM [35]: 26%; inhibition of growth at 10 µM [36]: 21%
CC1(C)CCC[C@@]2(C)C1=C[C@H]1C(=O)O[C@H](c3ccc(C#N)cc3)[C@H]12 | > 100 | 25 | 30 | 9 | 25 | 24 | 5 | > 100 | 18 | 19 | 17 | 14 | 24 | > 100 | 29 | 25 | 27 | 12 | 5 | 2 | IC50 [21]: > 100 µM; inhibition of growth at 50 µM [22]: 22%; IC50 [23]: > 100 µM; IC50 [24]: > 100 µM; IC50 [25]: > 100 µM; inhibition of growth at 50 µM [26]: 18%; inhibition of growth at 10 µM [27]: 6%; IC50 [28]: > 100 µM; IC50 [29]: > 100 µM; inhibition of growth at 50 µM [30]: 24%; inhibition of growth at 50 µM [31]: 17%; inhibition of growth at 50 µM [32]: 25%; inhibition of growth at 10 µM [33]: 15%; inhibition of growth at 100 µM [34]: 20%; inhibition of growth at 100 µM [35]: 25%; inhibition of growth at 10 µM [36]: 16%
COc1ccc([C@H]2OC(=O)[C@@H]3C=C4C(C)(C)CCC[C@]4(C)[C@H]23)cc1 | 94.8 | 45 | 55 | 30 | 43 | 52 | 3 | 99.2 | 52 | 27 | 0 | 16 | 15 | > 100 | 51 | 30 | 21 | 0 | 10 | 0 | IC50 [21]: > 100 µM; inhibition of growth at 50 µM [22]: 12%; IC50 [23]: 77.1 µM; IC50 [24]: 94.2 µM; IC50 [25]: > 100 µM; inhibition of growth at 50 µM [26]: 23%; inhibition of growth at 10 µM [27]: 3%; IC50 [28]: > 100 µM; IC50 [29]: 89.1 µM; inhibition of growth at 50 µM [30]: 31%; inhibition of growth at 50 µM [31]: 16%; inhibition of growth at 50 µM [32]: 0%; inhibition of growth at 10 µM [33]: 8%; inhibition of growth at 100 µM [34]: 16%; inhibition of growth at 100 µM [35]: 55%; inhibition of growth at 10 µM [36]: 8%
